Tests used:
KRAS G12C protein [1] = target: T1, KRAS G12C protein (Homo sapiens, UniProt P01116, G12C); assay: Nucleotide exchange assay, Method III (TR-FRET, association of KRAS G12C with Raf-RBD, SOS1-mediated exchange); assay type: biochemical; conditions: overnight (18 hr) incubation with GDP-bound KRAS G12C
Procedure, shortened: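 Compounds in 11-point 3-fold dilutions were preincubated 18 h at 23 °C with GDP-bound His-tagged KRAS G12C (25 nM in the 2× mix). SOS1/GTP was then added for 1 h at 23 °C, followed by FLAG-Raf-RBD with Tb-anti-FLAG/D2-anti-His for 2 h at room temperature. IC50 values came from non-linear regression of the TR-FRET signal.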
Target sequence in this assay (P01116 1-188 isoform P01116-2 G12C): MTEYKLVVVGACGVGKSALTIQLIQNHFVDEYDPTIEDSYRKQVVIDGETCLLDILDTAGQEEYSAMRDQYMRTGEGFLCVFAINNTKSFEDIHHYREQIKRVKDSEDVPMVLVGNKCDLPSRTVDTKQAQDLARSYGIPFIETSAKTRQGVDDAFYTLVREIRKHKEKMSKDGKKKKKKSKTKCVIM

KRAS G12C protein [2] = target: T1, KRAS G12C protein; assay: Nucleotide exchange assay, Method I (BODIPY-GDP fluorescence, SOS1-mediated exchange of GDP for GTP); assay type: biochemical; conditions: 30 minutes incubation with KRAS G12C/BODIPY-GDP
Description: Method I. A biochemical assay to assess activity of test compounds in inhibiting SOS1-mediated exchange of GDP for GTP on the KRAS G12C protein was performed at Reaction Biology Corporation (Malvern, Pa., USA). In this assay, exchange of BODIPY-GDP to GTP results in the decrease in BODIPY-GDP fluorescence. Briefly, recombinant KRAS G12C protein (aa 2-169, prepared by Reaction Biology) was labelled with 5× excess of BODIPY-GDP. Excess BODIPY-GDP was separated from loaded protein using a gravity desalting column. Compounds were incubated with 0.15 μM KRAS G12C/BODIPY-GDP for 30 minutes. A mixture of GTP (25 μM) and SOS1 (70 nM; aa 564-1049, prepared by Reaction Biology) was added to the reaction to initiate the nucleotide exchange reaction. Reaction progress was monitored in real time (Ex/Em=(483/530)) in CLARIOstar (BMG LabTech). After signal normalization, the data were fitted using the “one phase exponential decay” model in GraphPad Prism and rate constants obtained. Rate constants were converted to % activity values which were fit to a 4-parameter sigmoidal dose-response curve in Prism to derive IC50 values for inhibition of exchange activity by test compounds.
Target sequence in this assay (P01116 2-169 isoform P01116-2 G12C): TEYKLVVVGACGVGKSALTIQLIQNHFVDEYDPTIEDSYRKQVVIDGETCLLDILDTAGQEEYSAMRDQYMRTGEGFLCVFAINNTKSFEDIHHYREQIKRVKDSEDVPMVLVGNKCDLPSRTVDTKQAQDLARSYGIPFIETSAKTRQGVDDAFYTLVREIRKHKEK

SW1573 = assay: Cell proliferation assay panel (Cell Titer-Glo), SW1573; assay type: cell-based; conditions: Homo sapiens, 72 hr
Description: (§1) Potency of compounds was determined in cell proliferation assays in a panel of cancer cell lines. Cells were seeded in 384-well plates (Corning, Cat. #3765) at specified densities in 40 μL of culture medium and incubated overnight at 37° C. in a 5% CO2 incubator (culture conditions). With a robotic dispenser, serially diluted test compounds were added in a volume of 20 nL DMSO to wells in the culture plate to achieve the final desired concentrations of test compounds, and the cells were further incubated in culture conditions for 72 hr. The assay was terminated by addition of 25 μL of Cell Titer-Glo reagent (Promega, Madison, Wis.) to each well. Contents were mixed, the plate was incubated for 10 min at room temperature and luminescence was measured. The IC50 value of each test compound was calculated with XLFit curve fitting software. Results are shown in Table 4. ‘+++’ indicates IC50 values ≤300 nM, ‘++’ indicates IC50 values between 300 nM-3 μM, and ‘+’ indicates IC50 values ≥3 μM.

NCI-H358 = assay: Cell proliferation assay panel (Cell Titer-Glo), NCI-H358; assay type: cell-based; conditions: Homo sapiens, 72 hr
Description: as §1

MIA PaCa-2 = assay: Cell proliferation assay panel (Cell Titer-Glo), MIA PaCa-2; assay type: cell-based; conditions: Homo sapiens, MIA PaCa-2, 72 h
Description: as §1

NCI-H2030 = assay: Cell proliferation assay panel (Cell Titer-Glo), NCI-H2030; assay type: cell-based; conditions: Homo sapiens, 72 hr
Description: as §1

NCI-H1373 = assay: Cell proliferation assay panel (Cell Titer-Glo), NCI-H1373; assay type: cell-based; conditions: Homo sapiens, 72 hr
Description: as §1

NCI-H2122 = assay: Cell proliferation assay panel (Cell Titer-Glo), NCI-H2122; assay type: cell-based; conditions: Homo sapiens, 72 hr
Description: as §1

A549 = assay: Cell proliferation assay panel (Cell Titer-Glo), A549; assay type: cell-based; conditions: Homo sapiens, 72 hr
Description: as §1

KYSE-410 = assay: Cell proliferation assay panel (Cell Titer-Glo), KYSE-410; assay type: cell-based; conditions: Homo sapiens, 72 hr
Description: as §1

NCI-H358 cells = assay: 3D cell proliferation assay (Cell Titer-Glo 3D); assay type: cell-based; conditions: Homo sapiens, NCI-H358, 168 h, NCI-H358, 3D (ultra-low attachment); 7 days
Description: NCI-H358 cells (ATCC® CRL-5807™) were plated in a 384-well Black/Clear Round Bottom Ultra-Low Attachment Microplate (Corning) in medium (RPMI-1640+10% FBS) at a density of 1000 cells in 50 μL per well, then incubated overnight at 37° C. and 5% CO2. Cells were treated with test compounds at 9 concentrations within a specified concentration range (e.g., 0.5 nM-10 μM) for generation of dose response curves. Test compounds were prepared by 1:3 serial dilution in DMSO from a specified starting concentration (e.g., 20 μM, 2 μM or 0.2 μM) and then added to wells of the assay plate in a total volume of 150 nL DMSO. The cells were further incubated at 37° C. and 5% CO2 for 7 days. Cell viability was assessed by adding 40 μL of Cell Titer-Glo® 3D reagent (Cat. No.: G9683, Promega) to each well and reading luminescence after mixing and incubation of the samples. The IC50 value of each test compound was calculated with XLFit curve fitting software.

[3] = tested on: Phosphorylation of ERK in NCI-H358 cells; assay: pERK assay, Method II (homogeneous TR-FRET, phospho-ERK Thr202/Tyr204); assay type: cell-based; conditions: Homo sapiens, 4 hr compound treatment
Description: Method II. Phosphorylation of ERK was assessed by a homogeneous TR-FRET assay (Advanced phospho-ERK (Thr202/Tyr204) cellular kit; Cat. #64AERPEH, Cisbio). In brief, NCI-H358 cells were seeded in a 384-well culture plate at a density of 6000 cells in 40 μL medium/well and grown overnight at 37° C. and 5% CO2. Each test compound was dosed in duplicate in a 10-dose 3-fold titration starting at 10 μM or 2 μM. The culture plate was then incubated for 4 hr in the incubator. At the end of the compound treatment, the medium was removed, 35 μL of lysis buffer was added to each well, and the plate was agitated on a plate shaker for 40 mins at 4° C. An antibody cocktail of phospho-ERK1/2 Eu Cryptate antibody and Phospho-ERK1/2 d2 antibody was prepared by separately diluting the antibodies 20-fold with detection buffer and then mixing them together. 3.4 μL of antibody cocktail was dispensed to each well of an empty 384-well white ProxiPlus assay plate (Perkin Elmer), and the plate briefly centrifuged. 13.6 μL of cell lysate was then added to the antibody-containing wells, and the plate was briefly centrifuged and then incubated 2 hr at room temperature. The plate was read on a fluorescence plate reader (Envision2104, Perkin Elmer), with an excitation wavelength of 337 nm and emission wavelengths of 615 nm and 665 nm. The IC50 value of each test compound was calculated with XLFit curve fitting software. Results are shown in Table 6. ‘+++’ indicates IC50 values ≤300 nM, ‘++’ indicates IC50 values between 300 nM-3 μM, and ‘+’ indicates IC50 values ≥3 μM.

Compound | IC50 (KRAS G12C protein [1]) [µM] | IC50 (KRAS G12C protein [2]) [µM] | IC50 (SW1573) [µM] | IC50 (NCI-H358) [µM] | IC50 (MIA PaCa-2) [µM] | IC50 (NCI-H2030) [µM] | IC50 (NCI-H1373) [µM] | IC50 (NCI-H2122) [µM] | IC50 (A549) [µM] | IC50 (KYSE-410) [µM] | IC50 (NCI-H358 cells) [µM] | IC50 [3] [µM]
C=CC(=O)N1CCC(n2c(=O)c(=O)n(-c3c(C)ccnc3C(C)C)c3nc(-c4c(O)cccc4F)c(F)cc32)CC1 (single isomer, unassigned) [1 (Isomer A), 1-(1-acryloylpiperidin-4-yl)-7-fluoro-6-(2-fluoro-6-hydroxyphenyl)-4-(2-isopropyl-4-methylpyridin-3-yl)-1,4-dihydropyrido[2,3-b]pyrazine-2,3-dione] | 0.3 to 3 | 0.3 to 3 | – | – | – | – | – | – | – | – | – | –
C=CC(=O)N1CCN(c2c(C(=O)NC)c(=O)n(-c3c(C)ccnc3C(C)C)c3nc(-c4c(O)cccc4F)c(F)cc23)CC1 (single isomer, unassigned) [84 (Isomer B), 4-(4-acryloylpiperazin-1-yl)-6-fluoro-7-(2-fluoro-6-hydroxyphenyl)-1-(2-isopropyl-4-methylpyridin-3-yl)-N-methyl-2-oxo-1,2-dihydro-1,8-naphthyridine-3-carboxamide] | – | – | ≥ 3 | ≤ 0.3 | 0.3 to 3 | ≥ 3 | ≥ 3 | ≥ 3 | ≥ 3 | ≥ 3 | – | –
C=CC(=O)N1CCN(c2c(S(C)(=O)=O)c(=O)n(-c3c(C)ccnc3C(C)C)c3nc(-c4c(O)cccc4F)c(F)cc23)CC1 (single isomer, unassigned) [123 (Isomer A), 4-(4-acryloylpiperazin-1-yl)-6-fluoro-7-(2-fluoro-6-hydroxyphenyl)-1-(2-isopropyl-4-methylpyridin-3-yl)-3-(methylsulfonyl)-1,8-naphthyridin-2(1H)-one] | ≤ 0.3 | – | ≥ 3 | ≤ 0.3 | 0.3 to 3 | 0.3 to 3 | ≥ 3 | 0.3 to 3 | ≥ 3 | ≥ 3 | ≤ 0.1 | ≤ 0.3
C=CC(=O)N1CCC(n2c(=O)c(=O)n(-c3c(C)ccnc3C(C)C)c3nc(-c4c(O)cccc4F)c(F)cc32)CC1 (single isomer, unassigned) [1 (Isomer B), 1-(1-acryloylpiperidin-4-yl)-7-fluoro-6-(2-fluoro-6-hydroxyphenyl)-4-(2-isopropyl-4-methylpyridin-3-yl)-1,4-dihydropyrido[2,3-b]pyrazine-2,3-dione] | – | ≥ 3 | – | – | – | – | – | – | – | – | – | –

From patent US20230026856A1, “HETEROCYCLIC COMPOUNDS AND METHODS OF USE THEREOF” (SPARCBIO LLC, priority 2020, published 2023)
